Laboratory results taken from ChEMBL document CHEMBL5291721, “A preclinical secondary pharmacology resource illuminates target-adverse drug reaction associations of marketed drugs” (Nat Commun, 2023).

Legend:
[1] = molecular target: 3',5'-cyclic-AMP phosphodiesterase 4A (Homo sapiens, UniProt P27815); type: functional
[2] = molecular target: T1, Alpha-1A adrenergic receptor (Homo sapiens, UniProt P35348); type: functional, cell-based
T1 sequence (P35348 whole entry): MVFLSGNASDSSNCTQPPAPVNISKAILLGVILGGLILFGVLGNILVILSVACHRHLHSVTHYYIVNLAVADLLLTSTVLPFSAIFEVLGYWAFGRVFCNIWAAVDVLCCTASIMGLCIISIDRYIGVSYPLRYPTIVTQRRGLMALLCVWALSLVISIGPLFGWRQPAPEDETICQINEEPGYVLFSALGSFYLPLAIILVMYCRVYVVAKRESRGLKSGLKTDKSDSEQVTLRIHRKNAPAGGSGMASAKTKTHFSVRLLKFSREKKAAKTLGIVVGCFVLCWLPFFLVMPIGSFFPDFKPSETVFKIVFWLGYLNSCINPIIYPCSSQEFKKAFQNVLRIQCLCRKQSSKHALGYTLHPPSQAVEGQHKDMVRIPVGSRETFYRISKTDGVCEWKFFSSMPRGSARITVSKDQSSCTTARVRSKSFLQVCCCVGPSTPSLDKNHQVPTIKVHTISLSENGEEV

[3] = molecular target: T2, 5-hydroxytryptamine receptor 1A (Homo sapiens, UniProt P08908)
T2 sequence (P08908 whole entry): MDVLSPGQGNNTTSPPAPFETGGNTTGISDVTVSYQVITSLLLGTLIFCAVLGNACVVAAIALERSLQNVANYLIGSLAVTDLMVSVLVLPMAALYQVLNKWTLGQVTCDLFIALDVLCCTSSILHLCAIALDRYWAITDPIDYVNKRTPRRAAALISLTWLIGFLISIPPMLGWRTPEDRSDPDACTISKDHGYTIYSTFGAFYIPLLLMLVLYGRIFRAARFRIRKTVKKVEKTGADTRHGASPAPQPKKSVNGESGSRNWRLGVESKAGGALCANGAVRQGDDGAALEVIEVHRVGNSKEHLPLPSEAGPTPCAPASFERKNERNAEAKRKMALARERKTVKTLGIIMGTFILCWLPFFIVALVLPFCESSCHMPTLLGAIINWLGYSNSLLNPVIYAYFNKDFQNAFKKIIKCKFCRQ

[4] = molecular target: Prothrombin (Homo sapiens, UniProt P00734); type: functional
[5] = molecular target: Sodium-dependent dopamine transporter (Homo sapiens, UniProt Q01959)
Sodium-dependent dopamine transporter, sequence (Q01959 whole entry): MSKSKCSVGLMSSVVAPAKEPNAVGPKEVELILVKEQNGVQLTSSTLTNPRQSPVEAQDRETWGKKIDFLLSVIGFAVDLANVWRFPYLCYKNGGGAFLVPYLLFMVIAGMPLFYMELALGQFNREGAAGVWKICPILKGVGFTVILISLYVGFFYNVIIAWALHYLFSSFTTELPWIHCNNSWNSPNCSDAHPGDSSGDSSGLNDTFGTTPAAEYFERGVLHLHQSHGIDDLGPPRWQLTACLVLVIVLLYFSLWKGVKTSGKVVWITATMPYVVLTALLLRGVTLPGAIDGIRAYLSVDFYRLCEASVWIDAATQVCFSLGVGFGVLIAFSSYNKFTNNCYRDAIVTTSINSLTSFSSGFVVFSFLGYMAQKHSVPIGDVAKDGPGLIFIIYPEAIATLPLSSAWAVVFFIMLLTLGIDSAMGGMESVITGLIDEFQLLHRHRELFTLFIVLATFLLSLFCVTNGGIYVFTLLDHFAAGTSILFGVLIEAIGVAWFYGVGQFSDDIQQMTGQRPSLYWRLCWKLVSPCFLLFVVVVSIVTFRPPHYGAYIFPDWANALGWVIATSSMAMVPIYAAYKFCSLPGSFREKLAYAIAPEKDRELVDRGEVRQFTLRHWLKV

[6] = molecular target: Muscarinic acetylcholine receptor M3 (Homo sapiens, UniProt P20309)
Muscarinic acetylcholine receptor M3, sequence (P20309 whole entry): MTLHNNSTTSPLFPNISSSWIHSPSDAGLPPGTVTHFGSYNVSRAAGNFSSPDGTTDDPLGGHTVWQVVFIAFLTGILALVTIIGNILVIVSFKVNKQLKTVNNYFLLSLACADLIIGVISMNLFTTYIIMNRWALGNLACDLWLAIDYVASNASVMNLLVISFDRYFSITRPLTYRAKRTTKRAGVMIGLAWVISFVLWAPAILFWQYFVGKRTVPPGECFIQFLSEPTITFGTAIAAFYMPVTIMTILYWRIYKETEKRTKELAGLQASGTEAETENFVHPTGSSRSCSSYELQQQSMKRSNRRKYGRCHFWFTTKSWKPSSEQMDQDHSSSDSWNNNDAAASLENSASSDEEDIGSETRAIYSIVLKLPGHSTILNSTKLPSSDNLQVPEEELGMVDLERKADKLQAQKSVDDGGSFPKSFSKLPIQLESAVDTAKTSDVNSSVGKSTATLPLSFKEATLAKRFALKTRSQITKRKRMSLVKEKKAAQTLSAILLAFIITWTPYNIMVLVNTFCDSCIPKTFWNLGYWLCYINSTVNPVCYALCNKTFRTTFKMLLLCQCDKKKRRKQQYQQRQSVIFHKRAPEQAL

[7] = molecular target: D(1A) dopamine receptor (Homo sapiens, UniProt P21728); type: functional, cell-based
D(1A) dopamine receptor, sequence (P21728 whole entry): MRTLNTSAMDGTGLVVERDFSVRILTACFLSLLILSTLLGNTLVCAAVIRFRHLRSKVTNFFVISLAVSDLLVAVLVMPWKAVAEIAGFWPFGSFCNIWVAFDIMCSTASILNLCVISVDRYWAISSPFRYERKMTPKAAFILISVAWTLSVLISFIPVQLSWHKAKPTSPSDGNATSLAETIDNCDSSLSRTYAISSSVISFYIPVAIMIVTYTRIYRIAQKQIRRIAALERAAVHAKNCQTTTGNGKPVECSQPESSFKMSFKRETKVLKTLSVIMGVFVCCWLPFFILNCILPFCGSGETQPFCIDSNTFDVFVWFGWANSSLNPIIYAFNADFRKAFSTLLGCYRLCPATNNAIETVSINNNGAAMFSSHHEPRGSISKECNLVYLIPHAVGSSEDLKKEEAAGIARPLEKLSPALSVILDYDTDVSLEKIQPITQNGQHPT

[8] = molecular target: Mu-type opioid receptor (Homo sapiens, UniProt P35372); assay: biochemical; type: functional
Mu-type opioid receptor, sequence (P35372 whole entry): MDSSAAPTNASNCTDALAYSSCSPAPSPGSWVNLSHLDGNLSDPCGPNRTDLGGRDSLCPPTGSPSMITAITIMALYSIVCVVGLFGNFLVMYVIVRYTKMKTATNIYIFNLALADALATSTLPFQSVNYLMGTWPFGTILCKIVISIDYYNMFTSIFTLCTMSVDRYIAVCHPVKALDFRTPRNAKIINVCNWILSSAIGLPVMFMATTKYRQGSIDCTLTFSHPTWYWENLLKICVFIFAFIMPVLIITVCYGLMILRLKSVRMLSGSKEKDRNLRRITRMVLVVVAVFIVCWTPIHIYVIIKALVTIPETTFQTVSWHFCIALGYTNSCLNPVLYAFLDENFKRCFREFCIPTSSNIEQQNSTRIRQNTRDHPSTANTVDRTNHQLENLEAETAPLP

[9] = molecular target: 5-hydroxytryptamine receptor 2A (Homo sapiens, UniProt P28223); type: functional, cell-based
5-hydroxytryptamine receptor 2A, sequence (P28223 whole entry): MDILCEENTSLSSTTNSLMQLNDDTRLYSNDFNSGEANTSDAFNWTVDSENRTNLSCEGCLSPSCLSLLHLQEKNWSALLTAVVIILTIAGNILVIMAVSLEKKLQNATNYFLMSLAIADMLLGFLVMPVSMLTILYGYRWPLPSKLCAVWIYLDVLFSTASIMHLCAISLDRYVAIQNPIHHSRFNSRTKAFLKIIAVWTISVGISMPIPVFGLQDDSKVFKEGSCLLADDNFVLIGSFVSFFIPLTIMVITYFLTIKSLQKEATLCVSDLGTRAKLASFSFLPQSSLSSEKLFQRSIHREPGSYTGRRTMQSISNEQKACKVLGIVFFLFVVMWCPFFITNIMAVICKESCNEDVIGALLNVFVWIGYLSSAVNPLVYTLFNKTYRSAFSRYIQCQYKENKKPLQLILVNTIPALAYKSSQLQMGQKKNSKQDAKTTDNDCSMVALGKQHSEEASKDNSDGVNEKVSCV

[10] = molecular target: T3, Progesterone receptor (Homo sapiens, UniProt P06401); type: functional
T3 sequence (P06401 whole entry): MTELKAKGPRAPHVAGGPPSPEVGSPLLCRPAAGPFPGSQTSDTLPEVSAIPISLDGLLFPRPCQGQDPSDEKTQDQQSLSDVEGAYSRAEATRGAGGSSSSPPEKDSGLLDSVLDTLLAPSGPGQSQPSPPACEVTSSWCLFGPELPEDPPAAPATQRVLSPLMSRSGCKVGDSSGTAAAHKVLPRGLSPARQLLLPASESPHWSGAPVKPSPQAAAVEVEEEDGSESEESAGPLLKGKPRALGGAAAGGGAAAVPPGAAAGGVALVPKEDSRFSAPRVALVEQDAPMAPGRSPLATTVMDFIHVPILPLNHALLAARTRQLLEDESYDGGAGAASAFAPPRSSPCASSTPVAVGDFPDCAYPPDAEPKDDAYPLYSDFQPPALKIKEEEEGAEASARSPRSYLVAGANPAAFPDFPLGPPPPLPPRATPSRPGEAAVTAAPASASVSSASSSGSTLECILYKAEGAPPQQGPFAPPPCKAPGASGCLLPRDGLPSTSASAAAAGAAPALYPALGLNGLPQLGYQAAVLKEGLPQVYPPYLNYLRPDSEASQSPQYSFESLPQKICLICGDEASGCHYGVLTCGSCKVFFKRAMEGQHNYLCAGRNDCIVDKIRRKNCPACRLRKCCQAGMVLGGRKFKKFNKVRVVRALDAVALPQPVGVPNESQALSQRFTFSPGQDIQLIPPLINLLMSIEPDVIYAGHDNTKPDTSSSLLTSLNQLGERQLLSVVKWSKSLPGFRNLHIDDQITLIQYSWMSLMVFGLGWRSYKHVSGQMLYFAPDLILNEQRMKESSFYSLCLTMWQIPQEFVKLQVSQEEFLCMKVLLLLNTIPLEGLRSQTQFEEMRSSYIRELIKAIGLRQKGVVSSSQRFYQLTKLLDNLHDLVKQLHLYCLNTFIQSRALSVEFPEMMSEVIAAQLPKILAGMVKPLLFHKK

[11] = molecular target: Vasopressin V1a receptor (Homo sapiens, UniProt P37288)
Vasopressin V1a receptor, sequence (P37288 whole entry): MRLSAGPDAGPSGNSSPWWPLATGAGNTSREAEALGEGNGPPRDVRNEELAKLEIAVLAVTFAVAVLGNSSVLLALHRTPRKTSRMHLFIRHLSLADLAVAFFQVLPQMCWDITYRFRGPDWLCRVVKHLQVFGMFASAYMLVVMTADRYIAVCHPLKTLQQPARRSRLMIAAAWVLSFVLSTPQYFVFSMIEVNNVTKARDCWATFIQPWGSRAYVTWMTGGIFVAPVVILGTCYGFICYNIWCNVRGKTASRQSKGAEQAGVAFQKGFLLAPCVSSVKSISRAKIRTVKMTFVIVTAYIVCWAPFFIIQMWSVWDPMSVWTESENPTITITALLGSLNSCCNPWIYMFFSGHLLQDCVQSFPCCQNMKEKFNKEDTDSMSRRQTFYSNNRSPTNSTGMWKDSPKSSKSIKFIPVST

[12] = molecular target: Gamma-aminobutyric acid receptor subunit alpha-1 (Rattus norvegicus, UniProt P62813)
Gamma-aminobutyric acid receptor subunit alpha-1, sequence (P62813 whole entry): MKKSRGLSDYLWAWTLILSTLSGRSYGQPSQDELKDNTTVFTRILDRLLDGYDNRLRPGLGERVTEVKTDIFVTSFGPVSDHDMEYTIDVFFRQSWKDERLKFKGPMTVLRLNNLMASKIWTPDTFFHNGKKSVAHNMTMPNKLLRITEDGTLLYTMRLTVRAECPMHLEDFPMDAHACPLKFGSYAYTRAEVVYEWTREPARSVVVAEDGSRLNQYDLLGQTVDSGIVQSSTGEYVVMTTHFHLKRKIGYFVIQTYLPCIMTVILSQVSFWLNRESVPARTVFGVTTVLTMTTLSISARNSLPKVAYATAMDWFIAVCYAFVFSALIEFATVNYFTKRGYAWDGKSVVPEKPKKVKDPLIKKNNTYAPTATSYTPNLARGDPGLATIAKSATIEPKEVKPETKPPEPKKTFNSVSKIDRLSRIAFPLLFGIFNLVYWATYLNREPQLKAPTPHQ

[13] = molecular target: Cannabinoid receptor 1 (Homo sapiens, UniProt P21554)
Cannabinoid receptor 1, sequence (P21554 whole entry): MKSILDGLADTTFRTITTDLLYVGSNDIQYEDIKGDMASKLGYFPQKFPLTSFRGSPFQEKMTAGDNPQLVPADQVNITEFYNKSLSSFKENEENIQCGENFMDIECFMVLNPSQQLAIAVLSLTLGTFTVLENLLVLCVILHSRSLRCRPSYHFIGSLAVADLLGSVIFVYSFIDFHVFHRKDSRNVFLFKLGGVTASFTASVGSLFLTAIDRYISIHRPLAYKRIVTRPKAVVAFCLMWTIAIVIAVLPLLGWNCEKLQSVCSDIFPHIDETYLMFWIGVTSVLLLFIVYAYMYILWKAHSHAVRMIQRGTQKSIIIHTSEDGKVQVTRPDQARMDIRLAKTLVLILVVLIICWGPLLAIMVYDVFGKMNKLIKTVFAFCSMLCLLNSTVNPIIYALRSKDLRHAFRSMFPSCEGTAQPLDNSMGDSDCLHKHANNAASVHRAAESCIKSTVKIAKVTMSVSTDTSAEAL
Also: assay procedure not described here.

3',5'-cyclic-AMP phosphodiesterase 4A, sequence (P27815 whole entry): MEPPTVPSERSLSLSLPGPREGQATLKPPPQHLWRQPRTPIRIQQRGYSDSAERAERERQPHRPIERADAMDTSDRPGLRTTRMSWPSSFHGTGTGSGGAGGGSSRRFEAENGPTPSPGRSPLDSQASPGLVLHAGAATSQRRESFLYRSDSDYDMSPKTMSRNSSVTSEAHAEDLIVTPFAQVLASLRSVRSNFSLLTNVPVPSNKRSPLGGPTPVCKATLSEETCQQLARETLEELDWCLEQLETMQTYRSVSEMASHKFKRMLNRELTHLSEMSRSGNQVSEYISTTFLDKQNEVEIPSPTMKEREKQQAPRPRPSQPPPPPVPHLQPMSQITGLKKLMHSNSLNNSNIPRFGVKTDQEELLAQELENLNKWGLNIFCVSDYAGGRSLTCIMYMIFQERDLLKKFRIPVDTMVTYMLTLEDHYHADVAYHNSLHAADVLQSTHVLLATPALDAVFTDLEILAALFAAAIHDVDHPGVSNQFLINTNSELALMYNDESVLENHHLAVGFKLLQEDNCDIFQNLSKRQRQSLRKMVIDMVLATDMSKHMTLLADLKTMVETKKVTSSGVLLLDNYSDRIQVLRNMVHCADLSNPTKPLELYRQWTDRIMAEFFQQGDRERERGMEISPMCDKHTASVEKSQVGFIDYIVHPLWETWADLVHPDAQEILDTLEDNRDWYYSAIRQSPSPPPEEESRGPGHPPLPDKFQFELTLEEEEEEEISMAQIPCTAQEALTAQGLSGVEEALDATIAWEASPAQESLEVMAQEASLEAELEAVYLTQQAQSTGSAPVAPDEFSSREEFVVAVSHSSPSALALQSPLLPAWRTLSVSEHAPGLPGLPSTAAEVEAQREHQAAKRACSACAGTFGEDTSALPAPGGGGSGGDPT

SMILES	AC50 [1] [µM]	AC50 [2] [µM]	AC50 [3] [µM]	AC50 [4] [µM]	AC50 [5] [µM]	AC50 [6] [µM]	AC50 [7] [µM]	AC50 [8] [µM]	AC50 [9] [µM]	AC50 [10] [µM]	AC50 [11] [µM]	AC50 [12] [µM]	AC50 [13] [µM]
CC(=O)O[C@]1(C(C)=O)CC[C@H]2[C@@H]3C=C(Cl)C4=CC(=O)CC[C@]4(C)[C@H]3CC[C@@]21C [CHLORMADINONE ACETATE]	> 30	18	> 30	> 30	> 30	–	–	–	–	–	–	–	–
CC1(C)S[C@@H]2[C@H](NC(=O)[C@H](N)c3ccccc3)C(=O)N2[C@H]1C(=O)OCOC(=O)[C@@H]1N2C(=O)C[C@H]2S(=O)(=O)C1(C)C [SULTAMICILLIN]	–	–	–	–	–	> 30	> 30	> 30	> 30	> 30	> 30	–	–
[H]/N=C(/N)N/C(=N/[H])NCCc1ccccc1 [PHENFORMIN]	–	–	–	–	–	> 30	> 30	> 30	–	–	> 30	> 10	> 30
CCCN[C@H]1CCc2nc(N)sc2C1 [PRAMIPEXOLE]	–	–	–	–	–	> 30	–	–	–	> 30	> 30	> 10	–
CC(C)(C)C(=O)OCC(=O)[C@H]1CC[C@H]2[C@@H]3CCC4=CC(=O)CC[C@]4(C)[C@H]3CC[C@]12C [DESOXYCORTICOSTERONE PIVALATE]	–	–	–	–	–	> 30	> 10	–	> 10	–	> 10	> 10	> 10
C[C@]12CCC(=O)C(O)=C1CC[C@@H]1[C@@H]2CC[C@]2(C)C(=O)CC[C@@H]12 [FORMESTANE]	–	–	–	–	–	> 30	> 30	> 30	> 30	–	> 30	> 30	–
CC(C)(C)NC[C@H](O)COc1cccc2c1CCCC2=O [LEVOBUNOLOL]	> 30	> 30	0.886	> 30	> 30	–	–	–	–	–	–	–	–
CCC1(c2ccccc2)CCC(=O)NC1=O (stereo unspecified) [GLUTETHIMIDE]	–	–	–	–	–	> 30	> 10	–	> 30	> 10	> 10	> 10	> 10
Cc1noc(NS(=O)(=O)c2ccc(N)cc2)c1C [SULFISOXAZOLE]	–	–	–	–	–	–	> 10	–	–	> 10	–	> 10	> 10
CCCCC1C(=O)N(c2ccccc2)N(c2ccccc2)C1=O [PHENYLBUTAZONE]	–	–	–	–	–	–	> 10	–	–	> 10	> 30	> 10	> 10
C[C@H](Cc1ccc(O)c(O)c1)[C@@H](C)Cc1ccc(O)c(O)c1 [MASOPROCOL]	–	–	–	–	–	> 30	> 10	–	> 30	–	> 10	> 10	23.9
CCC[C@H](NC(=O)[C@@H]1[C@H]2CCC[C@H]2CN1C(=O)[C@@H](NC(=O)[C@@H](NC(=O)c1cnccn1)C1CCCCC1)C(C)(C)C)C(=O)C(=O)NC1CC1	–	–	–	–	–	> 30	–	–	–	–	> 10	> 10	> 10
C#C[C@]1(OC(C)=O)CC[C@H]2[C@@H]3CCC4=C/C(=N/O)CC[C@@H]4[C@H]3CC[C@@]21CC [NORGESTIMATE]	–	–	–	–	–	–	> 30	> 30	> 30	–	> 30	> 30	–
OC1(c2ccc(Cl)cc2)c2ccccc2C2=NCCN21 (stereo unspecified) [MAZINDOL]	–	–	–	–	–	> 30	> 30	16	–	> 30	> 30	> 30	> 10
